Experimental data published in the NIST ThermoML archive (doi:10.1021/acs.jced.8b00403).
± gives the expanded uncertainty stated by the source.

Assay: refractive index (Na D-line) (dimensionless); wn = mass fraction of the nth substance listed
Conditions: 101.33 kPa, Liquid, Standard Abbe refractometry

CC(O)CO (configuration not stated) [1,2-propanediol] + O
refractive index
Conditions	278.15 K	283.15 K	288.15 K	293.15 K	298.15 K	303.15 K	308.15 K	313.15 K	318.15 K
w1 = 0.0988	1.3458 ± 0.001	1.3454 ± 0.001	1.3449 ± 0.001	1.3444 ± 0.001	1.3432 ± 0.001	1.3432 ± 0.001	1.3424 ± 0.001	1.3416 ± 0.001	1.3408 ± 0.001
w1 = 0.198	1.3578 ± 0.001	1.3571 ± 0.001	1.3564 ± 0.001	1.3557 ± 0.001	1.355 ± 0.001	1.3542 ± 0.001	1.3534 ± 0.001	1.3534 ± 0.001	1.3516 ± 0.001
w1 = 0.3312	1.374 ± 0.001	1.373 ± 0.001	1.372 ± 0.001	1.371 ± 0.001	1.3699 ± 0.001	1.3689 ± 0.001	1.368 ± 0.001	1.3671 ± 0.001	1.366 ± 0.001
w1 = 0.5005	1.3946 ± 0.001	1.3932 ± 0.001	1.3918 ± 0.001	1.3903 ± 0.001	1.3889 ± 0.001	1.3874 ± 0.001	1.3862 ± 0.001	1.3851 ± 0.001	1.384 ± 0.001
w1 = 0.672	1.4112 ± 0.001	1.4098 ± 0.001	1.4084 ± 0.001	1.4069 ± 0.001	1.4054 ± 0.001	1.4039 ± 0.001	1.4024 ± 0.001	1.4008 ± 0.001	1.3994 ± 0.001
w1 = 0.8044	1.4231 ± 0.001	1.4216 ± 0.001	1.42 ± 0.001	1.4184 ± 0.001	1.4168 ± 0.001	1.415 ± 0.001	1.4135 ± 0.001	1.4119 ± 0.001	1.4103 ± 0.001
w1 = 0.9481	1.4343 ± 0.001	1.4328 ± 0.001	1.4312 ± 0.001	1.4296 ± 0.001	1.428 ± 0.001	1.4264 ± 0.001	1.4248 ± 0.001	1.4231 ± 0.001	1.4214 ± 0.001
w1 = 1	1.438 ± 0.001	1.4364 ± 0.001	1.4348 ± 0.001	1.4332 ± 0.001	1.4315 ± 0.001	1.4299 ± 0.001	1.4281 ± 0.001	1.4264 ± 0.001	1.4247 ± 0.001
